Measured values: ChEMBL document CHEMBL1134693, “Synthesis and comparative molecular field analysis (CoMFA) of symmetric and nonsymmetric cyclic sulfamide HIV-1 protease inhibitors” (J Med Chem, 2001)

Key:
[1] = molecular target: T1, Human immunodeficiency virus type 1 protease (Human immunodeficiency virus 1, UniProt Q72874); test: Inhibition of recombinant HIV-1 protease measured by fluorometric assay
[2] = molecular target: T1, Human immunodeficiency virus type 1 protease; test: Inhibition of HIV-1 protease by fluorometric assay

SMILES	Ki [1] [µM]	Ki [2] [µM]
O=S1(=O)N(Cc2ccccc2)[C@H](COc2ccccc2)[C@H](O)[C@@H](O)[C@@H](COc2ccccc2)N1Cc1ccccc1	0.023	0.0229
C/C(=N\O)c1cccc(CN2[C@H](COc3ccccc3)[C@H](O)[C@@H](O)[C@@H](COc3ccccc3)N(Cc3cccc(/C(C)=N/O)c3)S2(=O)=O)c1	0.0034	0.00339
O=C1N(Cc2ccccc2)[C@H](COc2ccccc2)[C@H](O)[C@@H](O)[C@@H](COc2ccccc2)N1Cc1ccccc1	0.011	–
O=S1(=O)N(Cc2ccc(-c3cccs3)cc2)[C@@H](COc2ccccc2)[C@@H](O)[C@H](O)[C@H](COc2ccccc2)N1Cc1ccc(-c2cccs2)cc1	0.92	0.912
O=C(CN1[C@@H](COc2ccccc2)[C@@H](O)[C@H](O)[C@H](COc2ccccc2)N(Cc2ccc(-c3cccs3)cc2)S1(=O)=O)Nc1nccs1	1.8	1.78
O=C(CN1[C@@H](COc2ccccc2)[C@@H](O)[C@H](O)[C@H](COc2ccccc2)N(Cc2cccc(-c3cccs3)c2)S1(=O)=O)Nc1nccs1	0.14	0.141
O=C(CN1[C@@H](COc2ccccc2)[C@@H](O)[C@H](O)[C@H](COc2ccccc2)N(Cc2cccc(I)c2)S1(=O)=O)Nc1nccs1	0.51	0.513
CNC(=O)CN1[C@@H](COc2ccccc2)[C@@H](O)[C@H](O)[C@H](COc2ccccc2)N(Cc2ccccc2)S1(=O)=O	1.4	1.41
O=S1(=O)N(Cc2cccc(CCO)c2)[C@@H](COc2ccccc2)[C@@H](O)[C@H](O)[C@H](COc2ccccc2)N1Cc1cccc(CCO)c1	0.043	0.0427
CC(=O)c1cccc(CN2[C@@H](COc3ccccc3)[C@@H](O)[C@H](O)[C@H](COc3ccccc3)N(Cc3cccc(C(C)=O)c3)S2(=O)=O)c1	0.059	0.0589
O=S1(=O)N(Cc2ccccc2)[C@@H](COc2ccccc2)[C@@H](O)[C@H](O)[C@H](COc2ccccc2)N1Cc1cccc(-c2cccs2)c1	0.086	0.0851
O=S1(=O)N(Cc2ccccc2)[C@@H](COc2ccccc2)[C@@H](O)[C@H](O)[C@H](COc2ccccc2)N1Cc1ccc(-c2cccs2)cc1	0.063	0.0631
O=C(CN1[C@@H](COc2ccccc2)[C@@H](O)[C@H](O)[C@H](COc2ccccc2)N(Cc2ccccc2)S1(=O)=O)Nc1nccs1	0.35	0.347
CN1[C@@H](COc2ccccc2)[C@@H](O)[C@H](O)[C@H](COc2ccccc2)N(Cc2ccccc2)S1(=O)=O	0.51	0.513
CNC(=O)c1cccc(CN2[C@@H](COc3ccccc3)[C@@H](O)[C@H](O)[C@H](COc3ccccc3)N(Cc3cccc(C(=O)NC)c3)S2(=O)=O)c1	0.039	0.0389
O=S1(=O)N(Cc2ccc(-c3cccs3)cc2)[C@@H](COc2ccccc2)[C@@H](O)[C@H](O)[C@H](COc2ccccc2)N1Cc1cccc(-c2cccs2)c1	6	6.03
O=S1(=O)N(Cc2cccc(-c3cccs3)c2)[C@@H](COc2ccccc2)[C@@H](O)[C@H](O)[C@H](COc2ccccc2)N1Cc1cccc(-c2cccs2)c1	2.2	2.19
O=S1(=O)N(Cc2ccc(CO)cc2)[C@@H](COc2ccccc2)[C@@H](O)[C@H](O)[C@H](COc2ccccc2)N1Cc1ccc(CO)cc1	0.0031	0.00309
COC(Cc1cccc(CN2[C@@H](COc3ccccc3)[C@@H](O)[C@H](O)[C@H](COc3ccccc3)N(Cc3cccc(CC(OC)OC)c3)S2(=O)=O)c1)OC	0.54	0.537
CN1[C@@H](COc2ccccc2)[C@@H](O)[C@H](O)[C@H](COc2ccccc2)N(C)S1(=O)=O	0.71	0.708
CNC(=O)CN1[C@@H](COc2ccccc2)[C@@H](O)[C@H](O)[C@H](COc2ccccc2)N(CC(=O)NC)S1(=O)=O	25	25.1
COC(=O)c1ccc(CN2[C@@H](COc3ccccc3)[C@@H](O)[C@H](O)[C@H](COc3ccccc3)N(Cc3ccc(C(=O)OC)cc3)S2(=O)=O)cc1	0.084	0.0832
O=S1(=O)N(Cc2cccc(I)c2)[C@@H](COc2ccccc2)[C@@H](O)[C@H](O)[C@H](COc2ccccc2)N1Cc1cccc(I)c1	0.093	0.0933
